Data: patent US20080090834A1, “SELECTIVE AZOLE PDE10A INHIBITOR COMPOUNDS” (Pfizer Inc, priority 2006, published 2008)
Where a name gives a salt, the structure may show the parent alone.

How the values were obtained:
[1] = target: T1, cloned rat PDE10A full-length enzyme (Rattus norvegicus, UniProt Q9QYJ6); assay: PDE10 enzyme inhibition, [3H]cAMP scintillation proximity assay; assay type: biochemical; conditions: rat PDE10A from Sf9 cells, 20 nM [3H]cAMP, SPA beads, 20 minute incubation at room temperature
T1 construct: cloned rat PDE10A full-length enzyme grown in transfected Sf9 insect cells; made in house; host or cells: Sf9 insect cells
T1 sequence (Q9QYJ6 1-794): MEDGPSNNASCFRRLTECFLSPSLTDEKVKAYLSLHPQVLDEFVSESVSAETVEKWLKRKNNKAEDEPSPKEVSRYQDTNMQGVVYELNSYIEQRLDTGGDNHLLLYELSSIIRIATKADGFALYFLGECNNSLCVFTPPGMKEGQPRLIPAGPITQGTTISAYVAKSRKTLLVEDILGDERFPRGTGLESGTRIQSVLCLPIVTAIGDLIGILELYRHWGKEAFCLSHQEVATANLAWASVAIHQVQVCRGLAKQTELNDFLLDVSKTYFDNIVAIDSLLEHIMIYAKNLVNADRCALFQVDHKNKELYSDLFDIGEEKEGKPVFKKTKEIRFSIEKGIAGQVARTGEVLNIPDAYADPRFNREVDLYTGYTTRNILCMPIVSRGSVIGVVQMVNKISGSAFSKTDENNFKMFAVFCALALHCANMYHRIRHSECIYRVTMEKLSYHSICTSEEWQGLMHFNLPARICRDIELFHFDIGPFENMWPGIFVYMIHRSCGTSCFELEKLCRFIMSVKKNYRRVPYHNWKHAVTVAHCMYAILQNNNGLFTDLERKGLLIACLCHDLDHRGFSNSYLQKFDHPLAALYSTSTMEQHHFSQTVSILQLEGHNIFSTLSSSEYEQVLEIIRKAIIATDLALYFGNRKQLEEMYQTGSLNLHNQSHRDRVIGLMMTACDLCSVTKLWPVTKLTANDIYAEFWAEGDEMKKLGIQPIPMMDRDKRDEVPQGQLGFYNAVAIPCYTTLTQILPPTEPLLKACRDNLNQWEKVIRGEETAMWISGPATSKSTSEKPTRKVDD
How it was run: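 Full-length rat PDE10A from Sf9 cells hydrolysed 20 nM [3H]cAMP in 50 mM Tris, 8.3 mM MgCl2, pH 7.5, 2% DMSO, for 20 minutes at room temperature (<10% conversion). Yttrium silicate SPA beads with zinc sulphate stopped the reaction and captured [3H]AMP; 1 uM papaverine defined non-specific binding, vehicle defined total conversion.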

Row | Compound | melting point | IC50 [1]
1 | c1ccc(-c2cn(-c3cccnc3)c(-c3ccc(-n4ccc5cccnc54)cc3)n2)nc1 [Example 7, 1-(4-(4-(pyridin-2-yl)-1-(pyridin-3-yl)-1H-imidazol-2-yl)phenyl)-1H-pyrrolo[2,3-b]pyridine] | 174 to 176 °C | 6.84 nM
2 | c1cncc(-n2cc(-c3nccs3)nc2-c2ccc(-n3ccc4cccnc43)cc2)c1 [Example 23, 1-(4-(1-(pyridin-3-yl)-4-(thiazol-2-yl)-1H-imidazol-2-yl)phenyl)-1H-pyrrolo[2,3-b]pyridine] | 195 to 197 °C | 3.32 nM
3 | COc1nc2cccnc2n1-c1ccc(-c2nc(-c3nccs3)cn2-c2ccc(C)nc2)cc1 [Example 81, 2-methoxy-3-(4-(1-(6-methylpyridin-3-yl)-4-(thiazol-2-yl)-1H-imidazol-2-yl)phenyl)-3H-imidazo[4,5-b]pyridine] | 190 to 192 °C | 0.33 nM
4 | Cc1ccc(-n2cc(-c3cscn3)nc2-c2ccc(-n3c(C(F)(F)F)nc4cccnc43)cc2)cn1 [Example 99, 2-(trifluoromethyl)-3-(4-(1-(6-methylpyridin-3-yl)-4-(thiazol-4-yl)-1H-imidazol-2-yl)phenyl)-3H-imidazo[4,5-b]pyridine] | 201 to 204 °C | 1.54 nM
5 | COc1ccc(-c2[nH]c(-c3cccs3)nc2-c2ccc(-n3cnc(-c4ccccc4)c3)cc2)cc1 [Example 108] | – | 602 nM
6 | Cc1cc(-c2nc(-c3cccs3)n(O)c2-c2cnccn2)ccc1-n1ccc2cccnc21 [Example 109, 1-(4-(1-hydroxy-5-(pyrazin-2-yl))-2-(thiophen-2-yl)-1H-imidazol-4-yl)-2-methylphenyl-1H-pyrrolo[2,3-b]pyridine] | – | 18.4 nM
7 | Cc1cc(-c2nc(-c3cccs3)n(O)c2-c2cnccn2)ccc1-n1ccc2cccnc21 [Example 110, 1-(4-(1-hydroxy-5-(pyrazin-2-yl)-2-(thiophen-2-yl)-1H-imidazol-4-yl)-2-methylphenyl)-1H-pyrrolo[2,3-b]pyridine] | – | 36.6 nM
8 | COc1ccc(-c2[nH]c(-c3cccs3)nc2-c2ccc(-n3cnc4ccccc43)cc2)cc1 [Example 111] | – | 9.33 nM
9 | Cc1cc(-c2nc(-c3cncs3)[nH]c2-c2cnccn2)ccc1-n1ccc2cccnc21 [Example 112] | – | 175 nM
10 | Cc1cc(-c2nc(-c3cccs3)[nH]c2-c2cnccn2)ccc1-n1ccc2cccnc21 [Example 113] | – | 47.4 nM
11 | c1ccc(-c2nc(-c3cccnc3)c(-c3ccc(-n4ccc5cccnc54)cc3)[nH]2)nc1 [Example 114, 1-(4-(2-(pyridin-2-yl)-4-(pyridin-3-yl)-1H-imidazol-5-yl)phenyl)-1H-pyrrolo[2,3-b]pyridine] | – | 18.6 nM
12 | c1ccc(-c2nc(-c3cccnc3)n(-c3ccc(-n4ccc5cccnc54)cc3)n2)nc1 [Example 115, 1-(4-(3-(pyridin-2-yl)-5-(pyridine-3-yl)-1H-1,2,4-triazol-1-yl)phenyl)-1H-pyrrolo[2,3-b]pyridine] | – | 17.9 nM
13 | COc1nc2cccnc2n1-c1ccc(-c2nc(-c3cncs3)cn2-c2ccc(C)nc2)cc1 [Example 116] | – | 0.305 nM
14 | Cc1ccc(-n2cc(-c3cncs3)nc2-c2ccc(-n3c(C(F)(F)F)nc4cccnc43)cc2)cn1 [Example 117, 2-(trifluoromethyl)-3-(4-(1-(6-methylpyridin-3-yl)-4-(thiazol-5-yl)-1H-imidazol-2-yl)phenyl)-3H-imidazo[4,5-b]pyridine] | – | 0.614 nM
15 | Cc1ccc(-n2cc(-c3nccs3)nc2-c2ccc(-n3c(=O)[nH]c4cccnc43)cc2)cn1 [Example 118, 3-(4-(1-(6-methylpyridin-3-yl)-4-(thiazol-2-yl)-1H-imidazol-2-yl)phenyl)-1H-imidazo[4,5-b]pyridin-2(3H)-one] | – | 0.748 nM
16 | c1ccc(-n2nc(-c3ccc(-n4ccc5cccnc54)cc3)c(-c3cccnc3)n2)nc1 [Example 119, 1-(4-(2-(pyridin-2-yl)-5-(pyridin-3-yl)-2H-1,2,3-triazol-4-yl)phenyl)-1H-pyrrolo[2,3-b]pyridine] | – | 134 nM
17 | c1ccc(-n2cc(-c3cccnc3)c(-c3ccc(-n4ccc5cccnc54)cc3)n2)nc1 [Example 120, 1-(4-(1-(pyridin-2-yl)-4-(pyridin-3-yl)-1H-pyrazol-3-yl)phenyl)-1H-pyrrolo[2,3-b]pyridine] | – | 42.9 nM
18 | c1ccc(-c2cc(-c3cccnc3)n(-c3ccc(-n4ccc5cccnc54)cc3)n2)nc1 [Example 121, 1-(4-(3-(pyridin-2-yl)-5-(pyridin-3-yl)-1H-pyrazol-1-yl)phenyl)-1H-pyrrolo)-2,3-b]pyridine bis-TFA salt] | – | 9.29 nM
19 | c1ccc(-c2cc(-c3cccnc3)nn2-c2ccc(-n3ccc4cccnc43)cc2)nc1 [Example 122, 1-(4-(5-(pyridin-2-yl)-3-(pyridin-3-yl)-1H-pyrazol-1-yl)phenyl)-1H-pyrrolo[2,3-b]pyridine TFA salt] | – | 21.1 nM
20 | c1ccc(-c2nc(-c3ccc(-n4ccc5cccnc54)cc3)n(-c3cccnc3)n2)nc1 [Preparation 123, 1-(4-(5-(pyridin-2-yl)-2-(pyridin-3-yl)-2H-1,2,4-triazol-3-yl)phenyl)-1H-pyrrolo[2,3-b]pyridine] | – | 26.2 nM
